Key:
human factor Xa = biological target: T1, human factor Xa (Homo sapiens, UniProt P00742); experiment: Test on measurement of coagulation time by human activated blood coagulation factor X; type: biochemical; settings: human blood plasma; concentration by which the coagulation time is prolonged 2-fold
T1 construct: purchased Enzyme Research Labs
Description: 1) Test on Measurement of Coagulation Time by Human Activated Blood Coagulation Factor X
To 90 μl of human blood plasma were added 10 μl of a drug or a physiological saline and 50 μl of human factor Xa (Enzyme Research Labs), incubation was carried out at 37° C. for 3 minutes, 100 μl of 20 mM CaCl2 previously warmed at 37° C. were added and the time until coagulation was measured by a coagulo-meter (KC10 of Amelung). With regard to the human blood plasma, each 45 ml of blood were collected from vein of elbow of six healthy persons using a syringe in which 5 ml of 3.8% sodium citrate were contained and centrifuged at 4° C. for 15 minutes at 3,000 rpm and the separated blood plasma was pooled and frozen, then thawed before use. With regard to the human factor Xa, the concentration by which the coagulation time when a physiological saline (control) was added was about 30 to 40 seconds was selected. A CT2 value (concentration by which the coagulation time is prolonged to an extent of 2-fold) was determined by plotting the drug concentrations and relative value (fold) of the coagulation time to the control, followed by subjecting to linear regression.

[1] = Test on ex vivo measurement of coagulation time in mice (oral administration); settings: male ICR mouse, po 100 mg/kg, as compared with control (plasma without administration of a drug)
Description: 4) Test on ex vivo Measurement of Coagulation Time in Mice (Oral Administration)
Using the resulting blood plasma, extrinsic coagulation time (PT) and intrinsic coagulation time (APTT) were measured in accordance with the following methods a) and b).
(§1) a) Extrinsic Coagulation Time (PT)
(§2) Ortho Brain Thromboplastin (54 mg/vial; a freeze-dried preparation; Ortho-Clinical Diagnostics) was dissolved in 2.5 ml of Milli-Q water and preliminarily warmed at 37° C. The above-separated blood plasma (50 μl) was warmed at 37° C. for 1 minute, 50 μl of the above-mentioned thromboplastin solution was added and the coagulation time was measured. Amelung KC10A was used for the measurement of the coagulation time.
(§3) b) Intrinsic Coagulation Time (APTT)
(§4) To 50 μl of the above blood plasma was added 50 μl of Hemoliance Thrombosil I (DIA-IATRON), the mixture was warmed at 37° C. for 3 minutes, 50 μl of a 20 mM CaCl2 solution previously warmed at 37° C. were added and the coagulation time was measured. KC10A manufactured by Amelung was used for the measurement of the coagulation time.
Dose dependency of and time-course changes in the anticoagulation action were also examined by changing the administration dose or the blood collection time.

[2] = Test on ex vivo measurement of coagulation time in cynomolgus monkeys (oral administration); settings: male cynomolgus monkeys, po 10 mg/kg, as compared with control (plasma without administration of a drug)
Description: as §1, §2, §3, §4
5) Test on ex vivo Measurement of Coagulation Time in Cynomolgus Monkeys (Oral Administration) […]

bovine thrombin = biological target: T2, bovine thrombin (Bos taurus, UniProt P00735); experiment: Test on measurement of coagulation time by bovine thrombin; type: biochemical; settings: human blood plasma; concentration by which the coagulation time is prolonged 2-fold
T2 construct: 500 units of Thrombin (derived from bovine; Mochida Pharmaceutical); purchased Mochida Pharmaceutical
Description: 2) Test on Measurement of Coagulation Time by Bovine Thrombin
To 50 μl of human blood plasma was added 50 μl of a drug or a physiological saline, incubation was carried out at 37° C. for 3 minutes, 50 μl of thrombin (500 units of Thrombin (derived from bovine; Mochida Pharmaceutical) previously warmed at 37° C. was added and the time until coagulation was measured by a coagulo-meter (KC10 of Amelung). With regard to the human blood plasma, each 45 ml of blood was collected from vein of elbow of six healthy persons using a syringe in which 5 ml of 3.8% sodium citrate was contained and centrifuged at 4° C. for 15 minutes at 3,000 rpm and the separated blood plasma was pooled and frozen, then thawed before use. With regard to the thrombin, the concentration by which the coagulation time when a physiological saline (control) was added was about 20 seconds was selected. A CT2 value (concentration by which the coagulation time is prolonged to an extent of 2-fold) was determined by plotting the drug concentrations and relative value (fold) of the coagulation time to the control, followed by subjecting to linear regression.

T1 sequence (P00742 235-488 limits assumed): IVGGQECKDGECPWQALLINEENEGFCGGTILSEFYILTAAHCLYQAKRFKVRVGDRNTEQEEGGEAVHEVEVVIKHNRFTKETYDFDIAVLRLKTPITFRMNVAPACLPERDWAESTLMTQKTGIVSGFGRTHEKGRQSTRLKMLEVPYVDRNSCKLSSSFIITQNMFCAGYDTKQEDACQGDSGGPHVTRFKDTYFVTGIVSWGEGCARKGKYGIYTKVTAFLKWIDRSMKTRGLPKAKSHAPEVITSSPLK
T1 sequence (P00742 41-179 partner limits assumed): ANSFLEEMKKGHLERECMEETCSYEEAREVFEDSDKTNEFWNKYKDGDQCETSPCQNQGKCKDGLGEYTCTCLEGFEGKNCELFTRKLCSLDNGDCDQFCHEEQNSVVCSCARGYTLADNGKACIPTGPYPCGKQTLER

Test on measurement of coagulation time by human activated blood coagulation factor X (CT2) (human factor Xa) [µM]	Test on measurement of coagulation time by bovine thrombin (CT2) (bovine thrombin) [µM]	Compound	prolongation of extrinsic coagulation time (PT) [1]	prolongation of intrinsic coagulation time (APTT) [1]	prolongation of extrinsic coagulation time (PT) [2]	prolongation of intrinsic coagulation time (APTT) [2]
11.3		COc1ccc(C(=O)Nc2ccc(O)cc2NC(=O)c2ccc(N(C)C)cc2)cc1 [Control 2, reference compound]				
		CN1CCCN(c2ccc(C(=O)Nc3cc(C(=O)O)ccc3COc3cccc(C(=N)N)c3)cc2)CC1.Cl [Example 3]	twice or more	twice or more	twice or more	twice or more
1.71	>100	COc1ccc(NC(=O)c2cccc(O)c2NC(=O)c2ccc(N3CCCN(C)CC3)cc2)cc1.Cl [Example 9, 3-hydroxy-4′-methoxy-2-{[4-(4-methyl-1,4-diazapan-1-yl)benzoyl]amino}benzanilide hydrochloride]				
1.41	>100	COc1ccc(C(=O)Nc2cccc(O)c2NC(=O)c2ccc(N3CCCN(c4ccncc4)CC3)cc2)cc1.Cl [Example 32]				
1.33	>100	CN1CCCN(c2ccc(C(=O)Nc3c(O)cccc3C(=O)Nc3ccc(F)cc3)cc2)CC1.Cl [Example 11]				
1.53	>100	COc1ccc(C(=O)Nc2cccc(OCCO)c2NC(=O)c2ccc(N3CCCN(C)CC3)cc2)cc1.Cl [Example 39, 3-(2-hydroxyethoxy)-N^1-(4-methoxybenzoyl)-N^2-[4-(4-methyl-1,4-diazepan-1-yl)benzoyl]-1,2-phenylenediamine hydrochloride]				
0.10	>100	CN1CCCN(c2ccc(C(=O)Nc3cc(C(=O)O)ccc3CCc3cccc(C(=N)N)c3)cc2)CC1.Cl [Example 5]				
17.0	>100	COc1ccc(C(=O)Nc2ccccc2NC(=O)c2ccc(C3CCNCC3)cc2)cc1 [Control 1, reference compound]				

Reference: patent US6642224B1, “Diazepan derivatives or salts thereof” (Yamanouchi Pharmaceutical Co., Ltd., priority 2000, dated 2003)
